Results taken from patent US8946302B2, “Selective sigma-1 receptor ligands” (Wisconsin Alumni Research Foundation, priority 2008, dated 2015).
“And” between values parts separate entries of the source, which are not always exact repeats. Equal values may be shown once. Read-outs that look alike come from different tables or passages of the source. Marks after values point to notes of the source that are not given here.

Columns and labels:
[1] = target: T1, Kv 1.4 K+ channel (Rattus norvegicus, UniProt P15385); test: Whole cell patch clamp of Kv 1.4 K+ channel co-expressed with sigma-1 receptor in HEK-293 cells; type: cell-based; conditions: for average inhibition of Kv 1.4 K+ channel: concentrations up to 300 μM, HEK-293; for EC50: HEK-293 co-expressing sigma-1 receptor, read-out: EC50 for inhibition of the Kv 1.4 K+ channel
T1 construct: expressed in transfected cells; host or cells: HEK-293, transient, pIRES KvS1R plus pEGFP
Description: After transfection (36-48 hours), whole cell K^+ currents were recorded from GFP positive HEK cells under voltage clamp using standard patch clamp techniques, using patch pipettes filled with (in mM) 120 KCl, 10 NaCl, 10 EGTA, 2 MgCl2, 2-4 MgATP, 0.3 NaGTP, 10 HEPES, pH 7.3.
The external solution was composed of (in mM) 130 NaCl, 4 KCl, 2 CaCl2, 1 MgCl2, 10 HEPES, pH 7.4 at room temperature (22-24° C.). Patch pipettes with resistances from 1-3 MΩ were fabricated from borosilicate glass (Garner Glass Co., CA). K^+ channels were activated by voltage step from −120 mV to 20 mV for 250 ms. Axopatch 200B, patch clamp amplifier interfaced to a PC running PCLAMP 7 (Axon Instruments) was used for data acquisition. Drugs were applied by a gravity feed system at a flow rate of 1-3 mL/minute. Series resistance compensation was used for cells with series resistance values higher than 10 MΩ. A 80-90% series resistance compensation was achieved on such cells.
K^+ currents were recorded using whole cell patch clamp technique.

[2] = target: T2, purified sigma-1 receptor (Cavia porcellus, UniProt Q60492); test: Competitive displacement of [3H]-(+)-pentazocine at the pure sigma-1 receptor; type: binding, guinea pig; conditions: read-out: Ki Pure σ-1R
T2 construct: made in house; host or cells: E. coli BL21 DE3
Description: A guinea pig sigma-1 receptor was purified as previously described (Ramachandran et al., Protein Expr. Purif., 2007. 51(2): 283-92). The pMal P2X plasmid (New England Biolabs) encoding the guinea pig sigma-1 receptor on the C-terminus of the E. coli Maltose Binding Protein was used for purification. The sigma-1 receptor on its C-terminus carried a hexa-histadine epitope tag. Protein was expressed in the E. coli strain BL21 DE3 (Novagen) with 0.6 mM IPTG. The E. coli pellet was sonicated and centrifuged at 100,000 g for 1 hour to separate the particulate and soluble fractions. The particulate fraction was extracted with Triton X-100, centrifuged and the extract was loaded onto an amylose resin (New England Biolabs, E-802). After washing the resin with buffer containing 0.5% Triton X-100, the MBP-sigma-1 receptor fusion protein was eluted with buffer containing 10 mM maltose.
The MBP-sigma-1-receptor fusion protein was cleaved with Factor Xa protease (Novagen) at room temperature for 24-48 hours and the cleavage was monitored with SDS-polyacrylamide gel electrophoresis. The sigma-1 receptor from the Factor Xa cleavage was purified with a HIS-Select HC Nickel affinity gel (Sigma-Aldrich P6611) in a batch format. The resin was washed with buffer containing 0.5% Triton X-100 detergent and the beads were separated by a brief centrifugation at 4000 rpm in a microcentrifuge. After washing to remove MBP, the pure sigma-1 receptor was eluted in buffer containing 250 mM imidazole.
To remove the undigested MBP-sigma-1 receptor fusion protein that is carried over in the Ni^2+ purification, the eluate from the Ni^2+ purification was incubated with Anti-MBP antibody conjugated to agarose (Vector Laboratories, Burlingame, Calif.) at 4° C. for 18-24 hours. The beads were separated by centrifugation and the supernatant contained the pure sigma-1 receptor.
Competition ligand binding to the pure sigma-1 receptor was performed as previously described. […] After incubation at 30° C. for 60 minutes, the reaction was terminated by rapid filtration through glass fiber filters (Whatman GF/B), using a Brandel cell harvester (Brandel, Gaithersburg, Md.). The glass fiber filters were pre-soaked in 0.5% polyethyleneimine (PEI) for at least 1 hour at room temperature (˜23° C.). Filters were washed 4 times with 4 mL of ice-cold 50 mM Tris-C1, pH 8.0. Radioactivity was quantified by liquid scintillation counting using a Packard model 1600 CA scintillation counter.

[3] = target: T3, σ-1 Sites (Cavia porcellus, UniProt Q60492); test: σ-1 sites radioligand binding, guinea pig liver membranes (Table 2); conditions: for Ki: guinea pig liver membranes
T3 construct: from tissue
Description: (§3) Assays for sigma-1 were performed using 10 nM (+)-[^3H]pentazocine in guinea pig liver homogenates (25 μg/well) incubated at 30° C. for 1 hour with several concentrations of competing ligands. After incubation, membranes were harvested on a 0.5% PEI-treated Whatman GF/B filters using a Brandel Cell Harvester. (+)-[^3H]pentazocine binding was determined by liquid scintillation counting. […] Serial concentrations of the compounds evaluated were added to the reactions for 45 minutes at 30° C. and the samples vacuum filtered through 0.5% polyethyleneimine (PEI) treated Whatman GF/B as described above to measure displacement of the radioligands from the sigma receptor subtypes.

[4] = target: T4, σ-2 Sites (Rattus norvegicus, UniProt Q5U3Y7); test: σ-2 sites radioligand binding, rat liver membranes (Table 2)
T4 construct: from tissue
T4 sequence (Q5U3Y7 1-176): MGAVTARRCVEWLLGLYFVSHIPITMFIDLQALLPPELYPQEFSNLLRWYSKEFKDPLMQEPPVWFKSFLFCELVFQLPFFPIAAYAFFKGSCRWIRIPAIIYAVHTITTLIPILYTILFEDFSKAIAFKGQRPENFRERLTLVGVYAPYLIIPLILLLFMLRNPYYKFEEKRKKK
Description: as §3

[5] = target: T5, sigma-1 receptor (Cavia porcellus, UniProt Q60492); test: Sigma-1 competitive binding, (+)-[3H]pentazocine, guinea pig liver membranes (Example 6); parameters: from tissue; host or cells: guinea pig liver membranes;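 further: compounds tested over serial concentrations, 45 min incubation at 30 °C with membrane preparations, read-out is displacement of bound radioligand from the receptor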
Description: (§4) Minced frozen rat livers or guinea pig livers (65 g) were thawed in 100 mL homogenization buffer (10 mM phosphate buffer pH 7.4 containing 0.32M sucrose, 1 M MgSO4, 0.5 M EGTA, 1 mM phenylmethylsulphonyl fluoride (PMSF), 10 μg/mlleupeptin, 1 μg/ml pepstatin A, 10 μg/ml p-toluenesulfonyl-L-arginine methyl ester (TAME) and then homogenized on ice with a Brinkman polytron homogenizer (setting 6, 4 bursts of 10 second each) followed by a glass homogenizer (Teflon pestle by 6 slow passes at 3,000 rpm). The homogenized tissues were then centrifuged at 17,000 g for 10 minutes. The supernatants were re-centrifuged at 100,000 g for 1 hour. The microsomal pellets were resuspended in homogenization buffer, snap frozen with dry ice-ethanol, and stored at −80° C. at a final protein concentration of 20 mg/mL.
as §3

[6] = target: T6, sigma-2 receptor (Rattus norvegicus, UniProt Q5U3Y7); test: Sigma-2 competitive binding, [3H]-DTG with (+)-pentazocine, rat liver membranes (Example 6); parameters: from tissue; host or cells: rat liver membranes; conditions: rat liver membranes, n = 3; read-out: Sigma2 KD values
T6 sequence (Q5U3Y7 1-176): T4 sequence (Q5U3Y7 1-176)
Description: as §4, §3

[7] = system: A549; test: Cytotoxicity assay A549; type: cell-based; conditions: Homo sapiens, HU lung, read-out: IC50 (SE) growth inhibition
Description: (§1) Multi-plex cytotoxicity assays were performed by the Keck-UWCCC Small Molecule Screening Facility (Madison, Wis.). Specific methodology can be found online at http://hts.wisc.edu/Resources.htm#mpa.

[8] = system: NCI-H460; test: Cytotoxicity assay NCI-H460; type: cell-based; conditions: Homo sapiens, HU lung, read-out: IC50 (SE) growth inhibition
Description: as §1

[9] = target: T5, sigma-1 receptor; parameters: from tissue; host or cells: guinea pig liver membranes; conditions: from Fontanilla et al. Biochemistry 2008; cited from earlier work
[10] = system: HCT-45; test: Cytotoxicity assay HCT-45; type: cell-based; conditions: Homo sapiens, HU Colorectal, read-out: IC50 (SE) growth inhibition
Description: as §1

[11] = system: HI299; test: Cytotoxicity assay HI299; type: cell-based; conditions: Homo sapiens, HU Lung, read-out: IC50 (SE) growth inhibition
Description: as §1

[12] = system: MCP10A; test: Cytotoxicity assay MCP10A; type: cell-based; conditions: Homo sapiens, HU Breast, read-out: IC50 (SE) growth inhibition
Description: as §1

[13] = system: MCF7; test: Cytotoxicity assay MCF7; type: cell-based; conditions: Homo sapiens, HU Breast, read-out: IC50 (SE) growth inhibition
Description: as §1

[14] = target: T6, sigma-2 receptor; parameters: from tissue; host or cells: rat liver membranes; conditions: from Fontanilla et al. Biochemistry 2008; cited from earlier work
[15] = system: Du145; test: Cytotoxicity assay Du145; type: cell-based; conditions: Homo sapiens, DU-145, HU Prostate, read-out: IC50 (SE) growth inhibition
Description: as §1

[16] = system: MB-MDA-231; test: Cytotoxicity assay MB-MDA-231; type: cell-based; conditions: Homo sapiens, HU Breast, read-out: IC50 (SE) growth inhibition
Description: as §1

[17] = system: HT-29; test: Cytotoxicity assay HT-29; type: cell-based; conditions: Homo sapiens, HU Colorectal, read-out: IC50 (SE) growth inhibition
Description: as §1

[18] = system: tumor cell lines; test: Cytotoxicity assays, various tumor cell lines (statements in words); type: cell-based, human
Description: Because sigma-1 receptors are overexpressed in numerous tumor cell lines, which include breast cancer, lung carcinoma, renal carcinoma, colon carcinoma, sarcoma, brain tumors, melanoma, glioblastoma, neuroblastoma, and prostate cancer, the ability of the compounds to inhibit the growth of various tumor cell lines were tested.
as §1

[19] = system: SF268; test: Cytotoxicity assay SF268; type: cell-based; conditions: Homo sapiens, SF-268, HU CNS, read-out: IC50 (SE) growth inhibition
Description: as §1

[20] = system: SKOV-3; test: Cytotoxicity assay SKOV-3; type: cell-based; conditions: Homo sapiens, SK-OV-3, HU Ovarian, read-out: IC50 (SE) growth inhibition
Description: as §1

[21] = target: T5, sigma-1 receptor; test: Competition assay against (+)-[3H]-pentazocine, trace amines; type: binding; parameters: from tissue; conditions: for sigma-2/sigma-1 Kd ratio: sigma-2 KD / sigma-1 KD
Description: (§2) Competitive binding assays were performed as previously described (18) with the exception of testing new ligands shown in Table 4.

[22] = target: T7, sigma-1 receptor (Rattus norvegicus, UniProt Q9R0C9); test: Protection of [125I]-IACoc photolabeling in rat liver membranes; type: binding; conditions: even at 50 and 100 μM
T7 construct: from tissue; host or cells: rat liver membranes
Description: (§5) Rat liver membranes (100 μg/lane) were suspended in the presence or absence of the protecting drugs. […] Percent band intensities are shown compared to controls performed in the absence of protecting ligand (−).

[23] = target: T6, sigma-2 receptor; test: Sigma-2 receptor competitive binding, trace amines; parameters: from tissue; host or cells: liver membranes (rat inferred)
Description: as §2

[24] = target: T6, sigma-2 receptor; test: Protection of [125I]IAF photolabeling of the sigma-2 receptor in rat liver membranes; type: binding; parameters: from tissue; host or cells: rat liver membranes
Description: as §5

[25] = target: sigma-1 receptor (Homo sapiens, UniProt Q99720); conditions: literature value; cited from earlier work
[26] = target: sigma-2 receptor (Homo sapiens, UniProt Q5BJF2); conditions: literature value; cited from earlier work
[27] = system: WT and sigma-1 receptor knockout mice; test: Open-field hypermobility assay in WT and sigma-1 receptor KO mice; type: in vivo, mouse; conditions: WT and KO mice, 3 mg/kg i.p.
Description: All mice were maintained on a normal light/dark cycle and handled in accordance with Animal Care and Use Guidelines of the University of Wisconsin, Madison. […] Mice were first acclimatized to the experimental room for one hour. WT and KO mice were injected with the monoamine oxidase inhibitor, pargyline (75 mg/kg, i.p.) two hours prior to DMT or vehicle injection(28). […] Each condition represents 8 to 14 mice (n=8-14). […] A computer program was used to quantitate movement and after each experiment, 70% ethanol was used to remove odors from the open-field.

T2 sequence (Q60492 whole entry): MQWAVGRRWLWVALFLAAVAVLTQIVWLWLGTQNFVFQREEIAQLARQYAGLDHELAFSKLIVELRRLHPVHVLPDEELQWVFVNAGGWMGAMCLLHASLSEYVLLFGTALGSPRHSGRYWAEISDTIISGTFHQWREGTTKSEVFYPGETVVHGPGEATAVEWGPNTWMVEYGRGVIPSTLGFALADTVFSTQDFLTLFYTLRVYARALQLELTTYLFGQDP
T3 sequence (Q60492 whole entry): as above
T5 sequence (Q60492 whole entry): as above
T1 sequence (Q9R0C9 whole entry partner): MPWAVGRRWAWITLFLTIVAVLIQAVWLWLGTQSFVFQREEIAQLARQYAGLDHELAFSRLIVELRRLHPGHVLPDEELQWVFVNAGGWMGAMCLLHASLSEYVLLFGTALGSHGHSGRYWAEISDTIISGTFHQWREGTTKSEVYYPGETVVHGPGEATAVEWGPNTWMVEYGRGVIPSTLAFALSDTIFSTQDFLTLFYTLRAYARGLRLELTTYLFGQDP
T1 sequence (P15385 whole entry): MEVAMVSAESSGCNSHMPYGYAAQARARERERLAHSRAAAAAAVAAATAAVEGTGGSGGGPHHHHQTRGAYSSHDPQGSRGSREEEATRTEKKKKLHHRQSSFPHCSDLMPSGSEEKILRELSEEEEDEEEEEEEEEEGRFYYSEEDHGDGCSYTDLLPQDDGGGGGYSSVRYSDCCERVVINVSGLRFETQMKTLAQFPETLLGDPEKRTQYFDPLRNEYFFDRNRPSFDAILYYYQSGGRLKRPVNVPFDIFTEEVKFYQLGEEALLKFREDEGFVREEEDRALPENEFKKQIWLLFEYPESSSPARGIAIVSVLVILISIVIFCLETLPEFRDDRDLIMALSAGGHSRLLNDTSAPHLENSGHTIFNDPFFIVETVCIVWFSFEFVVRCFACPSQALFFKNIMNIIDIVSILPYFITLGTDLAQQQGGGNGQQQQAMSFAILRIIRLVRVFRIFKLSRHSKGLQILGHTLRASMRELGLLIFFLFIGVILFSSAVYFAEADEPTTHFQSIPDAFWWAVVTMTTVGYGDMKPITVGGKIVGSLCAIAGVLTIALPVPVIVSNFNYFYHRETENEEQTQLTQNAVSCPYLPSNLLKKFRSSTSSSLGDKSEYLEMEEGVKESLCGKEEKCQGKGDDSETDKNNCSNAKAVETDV
Sequence of sigma-1 receptor (Homo sapiens, UniProt Q99720) (Q99720 whole entry, species assumed): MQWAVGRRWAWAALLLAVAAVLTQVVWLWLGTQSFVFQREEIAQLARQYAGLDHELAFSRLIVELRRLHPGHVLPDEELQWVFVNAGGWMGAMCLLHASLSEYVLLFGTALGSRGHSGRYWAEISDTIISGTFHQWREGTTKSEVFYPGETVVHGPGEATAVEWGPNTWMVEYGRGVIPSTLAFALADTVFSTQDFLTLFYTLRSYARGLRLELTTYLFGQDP
T7 sequence (Q9R0C9 whole entry): as the sequence (Q9R0C9 whole entry partner) above
Sequence of sigma-2 receptor (Homo sapiens, UniProt Q5BJF2) (Q5BJF2 whole entry, species assumed): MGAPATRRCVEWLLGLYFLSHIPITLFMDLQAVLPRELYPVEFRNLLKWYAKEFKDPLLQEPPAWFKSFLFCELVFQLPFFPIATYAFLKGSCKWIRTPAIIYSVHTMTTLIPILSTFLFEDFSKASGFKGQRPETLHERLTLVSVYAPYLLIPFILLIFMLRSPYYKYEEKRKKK

SMILES: CCCCN [Butylamine, reference compound]
- average inhibition of Kv 1.4 K+ channel [1]: 21%
- Ki ([2]; [3H]-(+)-pentazocine 10 nM): 477 ± 67.5 µM

SMILES: CCCCNCCCc1ccccc1 [Compound 1a, N-(3-Phenylpropyl)butan-1-amine]
- Ki [3]: 0.073 µM
- σ-1 selectivity σ-2 Ki/σ-1 Ki ([3]; σ-2 rat liver / σ-1 guinea pig liver membranes): 2
- EC50 [1]: 50 µM
- Ki [4]: 0.153 µM
- Ki ([2]; [3H]-(+)-pentazocine): 0.205 ± 0.0185 µM

SMILES: CCCCCCCNCCCc1ccccc1 [Compound 1c, N-(3-Phenylpropyl)heptane-1-amine]
- Ki [3]: 0.015 µM
- EC50 [1]: 10 µM
- Ki [4]: 0.033 µM
- Ki ([2]; [3H]-(+)-pentazocine): 0.0184 µM

SMILES: CCCCCCCCN(CCCCCCCC)C(=O)CCc1ccc(F)cc1 [Compound 4, N,N-Dioctyl-3-(4-fluorophenyl)propionamide]
- melting point: 190 to 193 °C

SMILES: CCCCN(CCCC)C(=O)CCc1ccc(F)cc1 [Compound 5, N,N-Dibutyl-3-(4-fluorophenyl)propionamide]
- melting point: 162 to 164 °C
- Ratio (σ2/σ1) [5]: 3.94
- Kd ([5]; guinea pig liver membranes, n = 3, read-out: Sigma 1 KD values): 32.1 µM
- Kd [6]: 126 µM

SMILES: CCCNCCc1ccc([N+](=O)[O-])cc1 [Compound 7, N-propyl-N-3-(4-nitophenyl)-ethylamine]
- melting point: 142 to 144 °C
- Ratio (σ2/σ1) [5]: 23.8
- Kd [6]: 53.6 µM

SMILES: CCCN(CCCc1ccc(F)cc1)CCc1ccc(N=[N+]=[N-])c(I)c1 [Compound 19]
- IC50 [7]: > 100 µM
- IC50 [8]: 40.3 µM
- Kd [9]: 7.24 µM
- Ratio (σ2/σ1) [9]: 0.178^c
- IC50 [10]: 54.1 µM
- IC50 [11]: 90.8 µM
- IC50 [12]: 86.6 µM
- IC50 [13]: 16.8 µM
- Kd [14]: 1.29 µM
- IC50 [15]: 13.1 µM
- IC50 [16]: 21.6 µM
- IC50 [17]: 36.4 µM
- cytotoxicity / tumor cell growth inhibition [18]: non-specifically cytotoxic in almost all the cell lines tested
- IC50 [19]: 38.8 µM
- IC50 [20]: > 100 µM

SMILES: CCCN(CCCc1ccc(F)cc1)CCc1ccc(N)cc1 [Compound 20, N-propyl-N-(4-aminophenyl-ethyl)-3-(4-fluorophenyl)propylamine]
- IC50 [7]: > 100 µM
- IC50 [8]: 44.8 µM
- Kd [9]: 2.59 µM
- Ratio (σ2/σ1) [9]: 0.046^c
- IC50 [10]: > 100 µM
- IC50 [11]: > 100 µM
- IC50 [12]: > 100 µM
- IC50 [13]: 41.3 µM
- Kd [14]: 0.12 µM
- IC50 [15]: > 100 µM
- IC50 [16]: 86.1 µM
- IC50 [17]: > 100 µM
- IC50 [19]: > 100 µM
- IC50 [20]: 20.2 µM

SMILES: CCCCCCCN [Heptylamine]
- average inhibition of Kv 1.4 K+ channel [1]: 15%
- Ki ([2]; [3H]-(+)-pentazocine 10 nM): 21.4 µM and 21 µM

SMILES: CN(C)CCc1ccccc1 [N,N′-dimethylPEA, N,N-dimethyl-2-phenylethylamine]
- sigma-2/sigma-1 Kd ratio [21]: 1.642

SMILES: CNCCc1ccccc1 [N-methylPEA]
- sigma-2/sigma-1 Kd ratio [21]: 0.366

SMILES: CNCCc1c[nH]c2ccccc12 [N-methyltryptamine]
- protection of sigma-1 receptor [125I]-IACoc photolabeling [22]: protected minimally

SMILES: CNCCc1ccc(O)cc1 [N-methyltyramine, 4-(2-(methylamino)ethyl)phenol]
- Kd ([23]; read-out: Sigma-2R KD): 6.61 µM

SMILES: NCCc1ccccc1 [Phenethylamine]
- Kd [21]: 97.4 µM
- Kd [23]: 7.31 µM

SMILES: NCCc1c[nH]c2ccccc12 [Tryptamine]
- protection of sigma-1 receptor [125I]-IACoc photolabeling [22]: protected minimally
- protection of [125I]IAF sigma-2 receptor photolabeling ([24]; 10 μM): 47%
- protection of [125I]IAF sigma-2 receptor photolabeling ([24]; 50 μM): 78%
- protection of [125I]IAF sigma-2 receptor photolabeling ([24]; 100 μM): 79%
- Kd [21]: 432 µM
- Kd ([23]; read-out: Sigma-2R KD): 4.91 µM

SMILES: NCCc1ccc(O)cc1 [Tyramine]
- Kd ([21]; (+)-[3H]-pentazocine 10 nM, read-out: Sigma-1R KD): > 30000 µM

SMILES: COC(=O)C1C(OC(=O)c2ccc(N=[N+]=[N-])c(I)c2)CC2CCC1N2C (stereo not shown) [[^125I]-IACoc, 3-[^125I]iodo-4-azidococaine]
- Kd [25]: 0.000126 µM

SMILES: CC1CN(CCCc2ccc(N=[N+]=[N-])c([125I])c2)CC(C)O1 (stereo not shown) [[^125I]IAF, 1-N-(2′,6′-dimethyl-morpholino)-3-(4-azido-3-[^125I]iodo-phenyl)propane]
- Kd [26]: 2.78 µM
- Kd [25]: 0.194 µM

SMILES: CN[C@@H](C)Cc1ccccc1 [methamphetamine]
- hypermobility [27]: induced hypermobility in both WT and KO mice
